Results: patent publication US20260014147A1, “STAT6 DEGRADERS” (Gilead Sciences, Inc., priority 2024, published 2026)

The molecules below were run against T1, STAT6 (endogenous, HiBiT-tagged) in HeLa LgBiT clone 4.14 cells (Homo sapiens, UniProt P42226) (assay: STAT6 Degrader Assay (HiBiT based, HeLa LgBiT clone 4.14 cells, luminescence, DC50)). Conditions: DC50 provided for test compounds with >80% Emax, geometric mean, read-out: STAT6 degradation DC50.
T1 construct: These cells express endogenous STAT6; host or cells: HeLa LgBiT clone 4.14
T1 sequence (P42226 1-847): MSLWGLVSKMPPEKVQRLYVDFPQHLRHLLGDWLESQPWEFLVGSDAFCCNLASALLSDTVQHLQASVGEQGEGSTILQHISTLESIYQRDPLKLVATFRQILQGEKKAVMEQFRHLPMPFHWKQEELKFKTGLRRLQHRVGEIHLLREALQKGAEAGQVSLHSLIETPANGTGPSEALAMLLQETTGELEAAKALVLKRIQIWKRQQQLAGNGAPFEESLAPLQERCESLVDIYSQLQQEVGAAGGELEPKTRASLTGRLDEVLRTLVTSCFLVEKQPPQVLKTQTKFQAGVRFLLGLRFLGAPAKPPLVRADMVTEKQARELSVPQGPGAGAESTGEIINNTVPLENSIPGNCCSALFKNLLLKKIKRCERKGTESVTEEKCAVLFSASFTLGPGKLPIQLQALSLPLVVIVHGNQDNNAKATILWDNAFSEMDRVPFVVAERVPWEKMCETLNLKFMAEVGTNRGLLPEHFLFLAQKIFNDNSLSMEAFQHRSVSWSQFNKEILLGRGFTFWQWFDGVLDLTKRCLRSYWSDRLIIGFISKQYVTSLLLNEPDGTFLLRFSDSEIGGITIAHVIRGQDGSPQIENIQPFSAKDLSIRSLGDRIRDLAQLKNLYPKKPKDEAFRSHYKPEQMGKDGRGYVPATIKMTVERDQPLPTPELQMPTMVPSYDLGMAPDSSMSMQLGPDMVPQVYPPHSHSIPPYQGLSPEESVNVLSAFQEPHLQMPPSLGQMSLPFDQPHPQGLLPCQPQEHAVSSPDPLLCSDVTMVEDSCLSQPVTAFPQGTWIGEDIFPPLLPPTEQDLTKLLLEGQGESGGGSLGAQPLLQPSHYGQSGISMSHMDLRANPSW
Assay type: cell-based
Description: This was a HiBit based assay. A HeLa cell line stably transfected with a small protein, LgBit (Large Bit) was obtained from Promega. These cells express endogenous STAT6. A small 11 amino acid gene sequence (HiBiT) was inserted in the STAT6 gene using CRISPR technology. Once STAT6 protein is expressed in the cells, the HiBiT sequence will bind the LgBit in the cells resulting in a functional NanoBiT protein, giving a luminescent tag to STAT6. Single cell clones were prepared and the clone 4.14 was selected for the assay based on that clone showing high luminescence, high STAT6 phosphorylation upon stimulation with IL-4, and inhibition of luminescence when cells were treated with STAT6 siRNA. HeLa LgBiT clone 4.14 cells were suspended in DMEM with 10% FCS, 1% Pen/Strep, Na-pyrovate and Hygromycin B, at a concentration of […]. 5000 cells were added pr well of a 384 well plate and 20 nL of compound was added by Echo® liquid handler. NN6394A (terfenadine, a toxic compound) was added to control wells at 50 µM concentration to establish the assay window. In these wells the cells are dead which equals 100% degradation of STAT6. After 4-24 h of incubation at 37° C. under 5% CO2/95% air, […] substrate (Nano-GLO®) was added to the wells and the plates were centrifuged and incubated for 0.5 h. The luminescence in the wells as a measure of non-degraded STAT6 was measured in a plate reader (BMG Pherastar FSX). The dose-response curves for Examples 2a2, 2t1, 2 h3, and 2r1 are shown below (where percent degradation is plotted vs. test compound concentration in M on a log-scale).

Compound	DC50 [nM]
CC(c1cc2c(-c3ccc(N)nc3)ccnc2n1C)N1CCC(c2ccc(C(=O)N3CCC(CN4CCN(c5ccc(N[C@H]6CCC(=O)NC6=O)cc5F)CC4)CC3)cc2)CC1 (single isomer, unassigned) [Example 2c11]	11.2
Cn1c(CN2CCC(c3ccc(-c4nnc5ccc(N6CCC(CN7CCN(c8ccc(NC9CCC(=O)NC9=O)cc8F)CC7)CC6)nn45)cc3)CC2)cc2c(-c3ccc(N)nc3)ccnc21 (centres unmarked) [Example 2r1, 3-((4-(4-((1-(3-(4-(1-((4-(6-aminopyridin-3-yl)-1-methyl-1H-pyrrolo[2,3-b]pyridin-2-yl)methyl)-piperidin-4-yl)phenyl)-[1,2,4]triazolo[4,3-b]pyridazin-6-yl)piperidin-4-yl)methyl)piperazin-1-yl)-3-fluorophenyl)-amino)piperidine-2,6-dione]	0.35
COc1cc(C2CCN(Cc3cc4n(n3)CCN(C(=O)c3ccc(C5CCN([C@@H](C)c6cc7c(-c8ccc(N)nc8)ccnc7n6C)CC5)cc3)C4)CC2)ccc1NC1CCC(=O)NC1=O (stereo partly drawn) [Example 2c44, 3-((4-(1-((5-(4-(1-((S)-1-(4-(6-aminopyridin-3-yl)-1-methyl-1H-pyrrolo[2,3-b]pyridin-2-yl)ethyl)piperidin-4-yl)benzoyl)-4,5,6,7-tetrahydropyrazolo[1,5-a]pyrazin-2-yl)methyl)piperidin-4-yl)-2-methoxyphenyl)amino)piperidine-2,6-dione]	0.7
COCc1nc2cc(-c3ccnc4c3cc(CN3CCC(c5ccc(C(=O)N6CCC(CN7CCN(c8ccc(NC9CCC(=O)NC9=O)c(F)n8)CC7)CC6)cc5)CC3)n4C)ccc2[nH]1 (centres unmarked) [Example 2n3, 3-((2-fluoro-6-(4-((1-(4-(1-((4-(2-(methoxymethyl)-1H-benzo[d]imidazol-5-yl)-1-methyl-1H-pyrrolo[2,3-b]pyridin-2-yl)methyl)piperidin-4-yl)benzoyl)piperidin-4-yl)methyl)piperazin-1-yl)pyridin-3-yl)amino)piperidine-2,6-dione]	19.8

Same assay, conditions: Emax provided for test compounds with <80% Emax (and 2c15), geometric mean, read-out: STAT6 degradation Emax

Compound	Emax [%]
Cc1nc(N)ccc1-c1ccnc2c1cc(CN1CCC(c3ccc(C(=O)N4CCC(CN5CCN(c6ccc(NC7CCC(=O)NC7=O)cc6F)CC5)CC4)cc3)CC1)n2C (centres unmarked) [Example 2c7, 3-((4-(4-((1-(4-(1-((4-(6-amino-2-methylpyridin-3-yl)-1-methyl-1H-pyrrolo[2,3-b]pyridin-2-yl)methyl)piperidin-4-yl)benzoyl)piperidin-4-yl)methyl)piperazin-1-yl)-3-fluorophenyl)amino)piperidine-2,6-dione]	30 to 40
Cn1c(CN2CCC(c3ccc(C(=O)N4CCn5c(CN6CCC(c7ccc(NC8CCC(=O)NC8=O)cc7F)CC6)nnc5C4)cc3)CC2)cc2c(-c3ccc(N)nc3)ccnc21 (centres unmarked) [Example 2q1, 3-((4-(1-((7-(4-(1-((4-(6-aminopyridin-3-yl)-1-methyl-1H-pyrrolo[2,3-b]pyridin-2-yl)methyl)piperidin-4-yl)benzoyl)-5,6,7,8-tetrahydro-[1,2,4]triazolo[4,3-a]pyrazin-3-yl)methyl)piperidin-4-yl)-3-fluorophenyl)amino)piperidine-2,6-dione]	40 to 50
Cn1c(CN2CCC(c3ccc(C(=O)N4CCC(CN5CCN(c6c(F)cc(NC7CCC(=O)NC7=O)cc6F)CC5)CC4)cc3)CC2)cc2c(-c3ccc4[nH]ncc4c3)ccnc21 (centres unmarked) [Example 2c34, 3-((4-(4-((1-(4-(1-((4-(1H-indazol-5-yl)-1-methyl-1H-pyrrolo[2,3-b]pyridin-2-yl)methyl)-piperidin-4-yl)benzoyl)piperidin-4-yl)methyl)piperazin-1-yl)-3,5-difluorophenyl)amino)piperidine-2,6-dione]	70 to 80
Cn1c(CN2CCC(c3ccc(C(=O)N4CCC(CN5CCN(c6ccnc(NC7CCC(=O)NC7=O)n6)CC5)CC4)cc3)CC2)cc2c(-c3ccc4[nH]ncc4c3)ccnc21 (centres unmarked) [Example 2k3, 3-((4-(4-((1-(4-(1-((4-(1H-indazol-5-yl)-1-methyl-1H-pyrrolo[2,3-b]pyridin-2-yl)methyl)-piperidin-4-yl)benzoyl)piperidin-4-yl)methyl)piperazin-1-yl)pyrimidin-2-yl)amino)piperidine-2,6-dione]	30 to 40
Cn1c(CN2CCC(c3ccc(C(=O)N4CCC(CN5CCN(c6ccc(NC7CCC(=O)NC7=O)cc6F)CC5)CC4)cc3)CC2)cc2c(-c3ccc(N)nc3)ccnc21 (centres unmarked) [Example 2c2, 3-((4-(4-((1-(4-(1-((4-(6-aminopyridin-3-yl)-1-methyl-1H-pyrrolo[2,3-b]pyridin-2-yl)methyl)-piperidin-4-yl)benzoyl)piperidin-4-yl)methyl)piperazin-1-yl)-3-fluorophenyl)amino)piperidine-2,6-dione]	50 to 60
COc1cc(N2CCN(CC3CCN(C(=O)c4ccc(C5CCN(Cc6cc7c(-c8ccc9[nH]ncc9c8)ccnc7n6C)CC5)cc4)CC3)CC2)c(F)cc1NC1CCC(=O)NC1=O (centres unmarked) [Example 2i1, 3-((4-(4-((1-(4-(1-((4-(1H-indazol-5-yl)-1-methyl-1H-pyrrolo[2,3-b]pyridin-2-yl)methyl)-piperidin-4-yl)benzoyl)piperidin-4-yl)methyl)piperazin-1-yl)-5-fluoro-2-methoxyphenyl)amino)-piperidine-2,6-dione]	40 to 50
Cn1c(CN2CCC(c3ccc(C(=O)N4CCC(CN5CCN(c6ccc(C(=O)NC7CCC(=O)NC7=O)nn6)CC5)CC4)cc3)CC2)cc2c(-c3ccc4[nH]ncc4c3)ccnc21 (centres unmarked) [Example 2d1, 6-(4-((1-(4-(1-((4-(1H-indazol-5-yl)-1-methyl-1H-pyrrolo[2,3-b]pyridin-2-yl)methyl)-piperidin-4-yl)benzoyl)piperidin-4-yl)methyl)piperazin-1-yl)-N-(2,6-dioxopiperidin-3-yl) pyridazine-3-carboxamide]	50 to 60
Cc1cc(C(=O)N2CCn3nc(CN4CCC(c5ccc(NC6CCC(=O)NC6=O)cc5F)CC4)cc3C2)cnc1C1=CCN(Cc2cc3c(-c4ccc(N)nn4)ccnc3n2C)CC1 (centres unmarked) [Example 2c48, 3-((4-(1-((5-(1′-((4-(6-aminopyridazin-3-yl)-1-methyl-1H-pyrrolo[2,3-b]pyridin-2-yl)methyl)-3-methyl-1′, 2′, 3′, 6′-tetrahydro-[2,4′-bipyridine]-5-carbonyl)-4,5,6,7-tetrahydropyrazolo[1,5-a]pyrazin-2-yl)methyl)piperidin-4-yl)-3-fluorophenyl)amino)piperidine-2,6-dione]	< 20
Cn1c(CN2CCC(c3ccc(C(=O)N4CCn5c(CN6CCC(c7ccc(NC8CCC(=O)NC8=O)cc7F)CC6)nnc5C4)cc3)CC2)cc2c(-c3ccc4[nH]ncc4c3)ccnc21 (centres unmarked) [Example 2q2, 3-((4-(1-((7-(4-(1-((4-(1H-indazol-5-yl)-1-methyl-1H-pyrrolo[2,3-b]pyridin-2-yl)methyl)-piperidin-4-yl)benzoyl)-5,6,7,8-tetrahydro-[1,2,4]triazolo[4,3-a]pyrazin-3-yl)methyl)piperidin-4-yl)-3-fluorophenyl)amino)piperidine-2,6-dione]	70 to 80
Cn1c(CN2CCC(c3ccc(C(=O)N4CCC(CN5CCN(Cc6ccc(NC7CCC(=O)NC7=O)cc6F)CC5)CC4)cc3)CC2)cc2c(-c3ccc(N)nc3)ccnc21 (centres unmarked) [Example 2s2, 3-((4-((4-((1-(4-(1-((4-(6-aminopyridin-3-yl)-1-methyl-1H-pyrrolo[2,3-b]pyridin-2-yl)methyl)piperidin-4-yl)benzoyl)piperidin-4-yl)methyl)piperazin-1-yl)methyl)-3-fluorophenyl)amino)piperidine-2,6-dione]	40 to 50
